Source: patent publication US20170156324A1 (Dow AgroSciences LLC, priority 2015, published 2017)
Where “and” joins values, the source holds several entries; their conditions need not be identical. Identical values can stand only once.

Assays:
Assay type in all cases: in vivo
[1] = system: Alopecurus myosuroides Huds. (blackgrass, ALOMY); assay: Field trial, post-emergence % visual weed control, ALOMY; settings: 15DAA, 3 g ai/ha
Description: (§1) Except for the trials utilizing the OD formulations, Actirob B was applied at 0.5 or 1.0 liters per hectare (L/ha), or Polyglycol 26-2 was applied at 0.5 to 1.0 L/ha in all respective single and tankmixture treatments being evaluated.
(§2) Trials were established as randomized complete blocks (RCBD) with three to four replicates. Individual treatments were 2-2.5 meters (m) wide and 6-20 m long. An untreated control was included in each trial. All trial sites had naturally occurring populations of weeds.
(§3) Herbicides were applied with backpack or bicycle sprayers using compressed air, nitrogen (N2) or carbon dioxide (CO2) as a propellant. All sprayers delivered a uniform spray pattern that provided thorough coverage of the foliage using a water volume of 150-300 L/ha. All herbicides were applied post-emergence in the spring to early-summer At the time of herbicide applications, winter wheat crops were at the six-leaf to three-tiller stage. Broadleaf and grass weeds were at a similar stage of growth at the time of herbicide application, typically from five leaf to 3 tiller depending on the weed species and time of year.
(§4) The treated plots and control plots were rated blind at various intervals after application. […] The control of the target weeds was visually assessed as percent control, compared to an untreated control plot. The assessments were based on a percent visual reduction in pest plant biomass and/or stand reduction of weed population.
(§5) The efficacy of all treatments was assessed at 13-22 days after application (DAA) for an early season rating, 23-39 DAA for a mid-season rating, and 41-84 DAA for a late-season rating. The data were statistically analyzed using various statistical methods, generally including a Tukey's HSD Factorial Analysis of Variance with a significance level of 5%.
(§6) Colby's equation was used to determine the herbicidal effects expected from the mixtures (Colby, S. R. Calculation of the synergistic and antagonistic response of herbicide combinations. Weeds 1967, 15, 20-22). […]

[2] = system: Echinochloa crus-galli (L.) P. Beauv. (barnyardgrass, ECHCG); assay: Field trial, post-emergence % visual weed control, ECHCG; settings: 6.25 g ai/ha
Description: as §1, §2, §3, §4, §5
(§7) Colby's equation was used to determine the herbicidal effects expected from the mixtures (Colby, S. R. Calculation of the synergistic and antagonistic response of herbicide combinations. Weeds 1967, 15, 20-22). A t-test (alpha=0.05) between Colby predictions and observed combinations was used to test for significant differences indicating synergy or antagonism using replicate data.
(§8) Expected=A+B+C−(AB+AC+BC)/100+(ABC)/10,000

[3] = system: Stellaria media (L.) Vill. (common chickweed, STEME); assay: Field trial, post-emergence % visual weed control, STEME; settings: 3.75 g ai/ha
Description: as §1, §2, §3, §4, §5, §7, §8

[4] = system: Matricaria recutita L. (wild chamomile, MATCH); assay: Field trial, post-emergence % visual weed control, MATCH; settings: 3.75 g ai/ha
Description: as §1, §2, §3, §4, §5, §7, §8

[5] = system: Consolida regalis S. F. Gray (branching larkspur, CNSRE); assay: Field trial, post-emergence % visual weed control, CNSRE
Description: as §1, §2, §3, §4, §5, §7, §8

[6] = system: Viola arvensis Murr. (field violet, VIOAR); assay: Field trial, post-emergence % visual weed control, VIOAR
Description: as §1, §2, §3, §4, §5, §7, §8

[7] = system: Galium aparine L. (catchweed bedstraw, GALAP); assay: Field trial, post-emergence % visual weed control, GALAP; settings: 28DAA, 3 g ai/ha
Description: as §1, §2, §3, §4, §5, §6

[8] = system: Solanum nigrum L. (black nightshade, SOLNI); assay: Field trial, post-emergence % visual weed control, SOLNI; settings: 6.25 g ai/ha
Description: as §1, §2, §3, §4, §5, §7, §8

[9] = system: Centaurea cyanus (cornflower, CENCY); assay: Field trial, post-emergence % visual weed control, CENCY
Description: as §1, §2, §3, §4, §5, §7, §8

[10] = system: Apera spica-venti (L.) Beauv. (windgrass, APESV); assay: Field trial, post-emergence % visual weed control, APESV
Description: as §1, §2, §3, §4, §5, §7, §8

[11] = system: Lamium purpureum L. (purple deadnettle, LAMPU); assay: Field trial, post-emergence % visual weed control, LAMPU; settings: 15DAA, 3.75 g ai/ha
Description: as §1, §2, §3, §4, §5, §7, §8

[12] = system: Agropyron repens L. (quackgrass, AGRRE); assay: Field trial, post-emergence % visual weed control, AGRRE; settings: 14DAA, 4 g ai/ha
Description: as §1, §2, §3, §4, §5, §6

[13] = system: Matricaria inodora (scentless mayweed, MATIN); assay: Field trial, post-emergence % visual weed control, MATIN; settings: 14DAA
Description: as §1, §2, §3, §4, §5, §7, §8

COc1ncc(F)c2nc(S(=O)(=O)Nc3c(F)cccc3F)nn12 [Florasulam, N-(2,6-difluorophenyl)-8-fluoro-5-methoxy[1,2,4]triazolo[1,5-c]pyrimidine-2-sulfonamide]
Mean % Weed Control [1]: 2.5%
Mean % Weed Control ([2]; 14DAA): 20.0%
Mean % Weed Control ([2]; 29DAA): 10.0%
Mean % Weed Control ([2]; 56DAA): 10.0%
Mean % Weed Control ([3]; 15DAA): 0.0%
Mean % Weed Control ([3]; 61DAA): 68.8% and 56.1%
Mean % Weed Control ([3]; 78DAA): 31.3%
Mean % Weed Control ([4]; 15DAA): 10.0%
Mean % Weed Control ([4]; 61DAA): 85.0% and 67.4%
Mean % Weed Control ([4]; 78DAA): 76.3%
Mean % Weed Control ([5]; 31DAA, 3 g ai/ha): 75.0%
Mean % Weed Control ([5]; 31DAA, 4 g ai/ha): 75.0%
Mean % Weed Control ([5]; 53DAA, 3 g ai/ha): 78.5%
Mean % Weed Control ([5]; 53DAA, 4 g ai/ha): 79.5%
Mean % Weed Control ([5]; 84DAA, 3 g ai/ha): 79%
Mean % Weed Control ([5]; 84DAA, 4 g ai/ha): 80%
Mean % Weed Control ([6]; 14DAA, 3 g ai/ha): 0.0%
Mean % Weed Control ([6]; 56DAA, 4 g ai/ha): 20.0%
Mean % Weed Control [7]: 57.5%
Mean % Weed Control ([8]; 29DAA): 40.0%
Mean % Weed Control ([8]; 56DAA): 20.0%
Mean % Weed Control ([9]; 28DAA, 3 g ai/ha): 48.8%
Mean % Weed Control ([9]; 28DAA, 4 g ai/ha): 75.0%
Mean % Weed Control ([9]; 56DAA, 3 g ai/ha): 27.5% and 48.8%
Mean % Weed Control ([9]; 77DAA, 3 g ai/ha): 40.0%
Mean % Weed Control ([9]; 77DAA, 4 g ai/ha): 82.5%
Mean % Weed Control ([9]; 84DAA, 4 g ai/ha): 30.0%
Mean % Weed Control ([10]; 14DAA, 3 g ai/ha): 0.0%
Mean % Weed Control ([10]; 14DAA, 4 g ai/ha): 0.0%
Mean % Weed Control ([10]; 28DAA, 3 g ai/ha): 0.0%
Mean % Weed Control ([10]; 28DAA, 4 g ai/ha): 0.0%
Mean % Weed Control ([10]; 56DAA, 3 g ai/ha): 0.0%
Mean % Weed Control ([10]; 56DAA, 4 g ai/ha): 0.0%
Mean % Weed Control [11]: 0.0%
Mean % Weed Control [12]: 0.0%
Mean % Weed Control ([13]; 3 g ai/ha): 30.0%
Mean % Weed Control ([13]; 4 g ai/ha): 35.0%
